In patent US6355632B1, “Naphthyl compounds, intermediates, compositions, and methods” (Eli Lilly and Company, priority 1995, dated 2002):
Where a name gives a salt, the structure may show the parent alone.

melting point: 184 to 188 °C
SMILES: COc1ccc(-c2ccc3cc(OC)ccc3c2Oc2ccc(OCCN3CCCCC3)cc2)cc1 (as salt: hydrochloride) [Example 4, 1-[4-[2-(1-piperdinyl)ethoxy]phenoxy]-2-(4-methoxyphenyl)-6-methoxynaphthalene hydrochloride]
